The results in this text go back to patent US4039574A, “13-Hydroxy-15-deoxy-prostaglandins” (American Cyanamid Company, priority 1975, dated 1977).

This test concerns basal gastric acid secretion. As to the kind of experiment: Inhibition of Gastric Acid Secretion in the Acute Gastric Fistula Rat (basal gastric acid secretion). The format is in vivo, Female Sprague-Dawley rats. The settings on record: 10 mg./kg., vs concurrent vehicle control.

Consider `CCCCCCCC(O)[C@@H]1CCC(=O)[C@H]1CCCCCCC(=O)O` (relative stereo) [trans-2-(6-carboxyhexyl)-3-(1-hydroxyoctyl)cyclopentanone], for which, under “intraduodenal route”, the “% inhibition of total acid output after 60 minutes” value (“% inhibition … after 60 minutes” below) came to 29% and the “% inhibition of total acid output after 120 minutes” value (“% inhibition … after 120 minutes” for short) amounted to 78%.
As for `CCCCCCCC(O)C1C(O)CC(=O)C1CC=CCCCC(=O)O` (stereo not drawn) [2α-(6-carboxyhex-2-cis-enyl)-3β-(1-hydroxyoctyl)-4-hydroxycy] [2α-(6-carboxyhex-2-cis-enyl)-3β-(1-hydroxyoctyl)-4-hydroxycyclopentanone], where the note is “intraduodenal route”, the “% inhibition … after 60 minutes” value stood at 81% and the “% inhibition … after 120 minutes” value is 20%.
In the case of `CCCCCCCC(O)C1C(O)CC(=O)C1CC=CCCCC(=O)O` (stereo not drawn) [2β-(6-carboxyhex-2-cis-enyl)-3β-(1-hydroxyoctyl)-4-hydroxycy] [2β-(6-carboxyhex-2-cis-enyl)-3β-(1-hydroxyoctyl)-4-hydroxycyclopentanone], under “intraduodenal route”, the “% inhibition … after 60 minutes” value is reported as 100% and the “% inhibition … after 120 minutes” value is 94%. Also, where the note is “oral route of administration”, the “% inhibition … after 60 minutes” value is 1% and the “% inhibition … after 120 minutes” value worked out at 56%.
